Assay results: patent US6797712B2, “Substituted amino-furan-2-yl-acetic acid and amino-thien-2-yl-acetic acid derivatives and their use in the treatment of migraine and pain” (Gruenenthal GmbH, priority 2000, dated 2004)
Structures can show the parent of a compound that is named as a salt.

Molecular target: T1, glycine binding site of the NMDA receptor channel (Rattus norvegicus, UniProt P35439)
T1 construct: from tissue; host or cells: rat brain cortex and hippocampus membrane homogenate (male Wistar rats)
Assay: Receptor binding studies, displacement of (3H)-MDL 105,519 from brain membrane homogenates
Settings: for Displacement (%, 10 μmol) / inhibition at 10 µM: percentage of bonded radioactive ligand (3H)-MDL 105,519 displaced from specific binding at 10 μM of test substance; for Ki: glycine binding site of the NMDA receptor channel, rat cortex/hippocampus membrane homogenate, 1 nmol/l (3H)-MDL 105,519, from IC50 by Cheng-Prussoff equation; for inhibition at 10 µM: read-out: Displacement (%, 10 μmol)
Protocol: The tests to determine the affinity of the compounds of formula (I) according to the invention for the glycine binding site of the NMDA receptor channel were carried out on brain membrane homogenates (homogenate of cortex and hippocampus area from the brains of male rats, Wistar strain) (B. M. Baron, B. W. Siegel, B. L. Harrison, R. S. Gross, C. Hawes and P. Towers, Journal of Pharmacology and Experimental Therapeutics, (1996), Vol. 279, p. 62).
To that end, cortex and hippocampus from freshly removed rat brains were exposed and homogenized, while cooling with ice, in 5 mmol/l of TRIS acetate buffer, […] of saccharose pH 7.4 (10 ml/g fresh weight) using a Potter homogenizer (Braun/Melsungen; 10 piston strokes at 500 rpm) and then centrifuged for 10 minutes at 1000 g and 4° C. The first supernatant was collected and the sediment was again homogenized, while cooling with ice, with 5 mmol/l of TRIS acetate buffer, 0.32 mol/l of saccharose pH 7.4 (5 ml/g original fresh weight) using the Potter homogenizer (10 piston strokes at 500 rpm) and centrifuged for 10 minutes at 1000 g and 4° C. The resulting supernatant was combined with the supernatant from the first centrifugation and centrifuged for 20 minutes at 17,000 g and 4° C. The supernatant from this centrifugation was discarded and the membrane sediment was taken up in 5 mmol/l of TRIS acetate buffer pH 8.0 (20 ml/g original fresh weight) and homogenized with 10 piston strokes at 500 rpm.
The membrane homogenate was then incubated for one hour at 4° C. and centrifuged for 30 minutes at 50,000 g and 4° C. The supernatant was discarded and the centrifuge tube containing the membrane sediment was closed with Parafilm and frozen for 24 hours at −20° C. On the following day, the membrane sediment was thawed and taken up in 5 mmol/l of ice-cold TRIS acetate buffer, 0.1% saponin (w/v) pH 7.0 (10 ml/g original fresh weight) and homogenized with 10 piston strokes at 500 rpm and then centrifuged for 20 minutes at 50,000 g and 4° C. The resulting supernatant was discarded and the sediment was taken up in a small volume in 5 mmol/l of TRIS acetate buffer pH 7.0 (about 2 ml/g original fresh weight) and again homogenized with 10 piston strokes at 500 rpm. After determination of the protein content, the membrane homogenate was adjusted to a protein concentration of 10 mg of protein/ml with 5 mmol/l TRIS acetate buffer pH 7.0, and was frozen in aliquots until testing.
For the receptor binding test, aliquots were thawed, diluted 1:10 with 5 mmol/l of TRIS acetate buffer pH 7.0, homogenized, while cooling with ice, with 10 piston strokes at 500 rpm using the Potter homogenizer (10 piston strokes at 500 rpm) and centrifuged for 60 minutes at 55,000 g and 4° C. The supernatant was decanted off and the membrane sediment was adjusted to a protein concentration of 1 mg/ml with 50 mmol/l of ice-cold TRIS acetate buffer pH 7.0 and again homogenized with 10 piston strokes at 500 rpm and maintained in suspension in an ice-bath while stirring with a magnetic stirrer. Of that membrane homogenate, 100 μl per 1 ml batch were used in the receptor binding test (0.1 mg protein/ml in the final batch).
In the binding test, 50 mmol/l of TRIS acetate buffer pH 7.0 were used as the buffer, and 1 nmol/l of (^3H)-MDL 105,519 (B. M. Baron et al. 1996) was used as the radioactive ligand. The proportion of non-specific binding was determined in the presence of 1 mmol/l of glycine.
In further batches, the compounds according to the invention were added in series of concentrations and the displacement of the radioactive ligand from its specific binding to the glycine binding site of the NMDA receptor channel was determined. The respective triplicate batches were incubated for 120 minutes at 4° C. and then harvested by means of filtration through glass fiber filter mats (GF/B) for determination of the radioactive ligand bonded to the membrane homogenate. […]

Compound | binding to the glycine binding site of the NMDA ion channel (statement in words) (general statement in the description, no values) | Displacement (%, 10 μmol) | Ki | inhibition at 10 µM
COc1ccc(NC(C(=O)O)c2cccs2)cc1 (centres unmarked) [(4-methoxy-phenylamino)-thien-2-yl-acetic acid, reference compound] | bind selectively to the glycine binding site of the NMDA ion channel | – | – | –
CSCc1ccc(C(Nc2cc(Cl)cc(Cl)c2)C(=O)O)o1 (centres unmarked) [Example 106, (3,5-Dichloro-phenylamino)-(5-methylsulfanylmethyl-furan-2-yl)-acetic acid] | – | 65% | – | –
CSCc1ccc(C(Nc2cc(Cl)cc(Cl)c2)C(=O)O)o1.Cl (centres unmarked) [Example 106-HCl, (3,5-Dichloro-phenylamino)-(5-methylsulfanylmethyl-furan-2-yl)-acetic acid hydrochloride] | – | 91% | – | –
CSCc1ccc(C(Nc2cc(Cl)cc(Cl)c2)C(=O)O)o1.[Na] (centres unmarked) [Example 106-Na, (3,5-Dichloro-phenylamino)-(5-methylsulfanylmethyl-furan-2-yl)-acetic acid sodium] | – | 78% | 2.98 µM | –
O=C(O)C(Nc1cc(Cl)cc(Cl)c1)c1ccc(CS)o1 (centres unmarked) [Example 107, (3,5-Dichloro-phenylamino)-(5-mercaptomethyl-furan-2-yl)-acetic acid] | – | – | – | 101%
O=C(O)C(Nc1cc(Cl)cc(Cl)c1)c1ccc(CO)s1 (centres unmarked) [Example 109, (3,5-Dichloro-phenylamino)-(5-hydroxymethyl-thiophen-2-yl)-acetic acid] | – | – | – | 66%
CC(=O)SCc1ccc(C(Nc2cc(Cl)cc(Cl)c2)C(=O)O)o1 (centres unmarked) [Example 110, (5-Acetylsulfanylmethyl-furan-2-yl)-(3,5-dichloro-phenylamino)-acetic acid] | – | – | 0.12 µM | 104%
CCc1ccc(C(Nc2cc(Cl)cc(Cl)c2)C(=O)O)s1 (centres unmarked) [Example 111, (3,5-Dichloro-phenylamino)-(5-ethyl-thiophen-2-yl)-acetic acid] | – | – | – | 44%
O=C(O)C(Nc1cccc(Cl)c1)c1ccc(CS)o1 (centres unmarked) [Example 113, (3-Chloro-phenylamino)-(5-mercaptomethyl-furan-2-yl)-acetic acid] | – | – | – | 99%
O=C(O)C(Nc1ccc(Cl)c(Cl)c1)c1ccc(CS)o1 (centres unmarked) [Example 114, (3,4-Dichloro-phenylamino)-(5-mercaptomethyl-furan-2-yl)-acetic acid] | – | – | – | 45%
CC(C)(C)c1ccc(C(Nc2cc(Cl)cc(Cl)c2)C(=O)O)o1 (centres unmarked) [Example 119-HCl, (5-tert-Butylfuran-2-yl)-(3,5-dichlorophenylamino)-acetic acid hydrochloride] | – | – | – | 91%
O=C(O)C(Nc1cc(Cl)cc(Cl)c1)c1ccc(CSSCc2ccco2)o1 (centres unmarked) [Example 120, (3,5-Dichlorophenylamino)-[5-(furan-2-ylmethyldisulfanylmethyl)-furan-2-yl]-acetic acid] | – | – | 0.47 µM | 103%
CSSCc1ccc(C(Nc2cc(Cl)cc(Cl)c2)C(=O)O)o1 (centres unmarked) [Example 121, (3,5-Dichlorophenylamino)-(5-methyldisulfanylmethyl-furan-2-yl)-acetic acid] | – | – | 0.29 µM | 106%
CC(=O)OCc1ccc(C(Nc2cc(Cl)cc(Cl)c2)C(=O)O)o1 (centres unmarked) [Example 123, (5-Acetoxymethylfuran-2-yl)-(3,5-dichlorophenylamino)-acetic acid] | – | – | 5.03 µM | 60%
Cc1ccc(C(Nc2cc(Cl)cc(Cl)c2)C(=O)O)s1 (centres unmarked) [Example 125-Na, (3,5-Dichlorophenylamino)-(5-methylthiophen-2-yl)-acetic acid sodium salt] | – | – | 5.03 µM | 63%
Cc1csc(C(Nc2cc(Cl)cc(Cl)c2)C(=O)O)c1 (centres unmarked) [Example 126, (3,5-Dichlorophenylamino)-(4-methylthiophen-2-yl)-acetic acid] | – | – | 15.4 µM | 52%
O=C(O)C(Nc1cc(Cl)cc(Cl)c1)c1ccc(Cl)s1 (centres unmarked) [Example 127, (5-Chlorothiophen-2-yl)-(3,5-dichlorophenylamino)-acetic acid] | – | – | 2.57 µM | 68%
O=C([O-])C(Nc1cc(Cl)cc(Cl)c1)c1ccc(Cl)s1.[Na+] (centres unmarked) [Example 127-Na, (3,5-Dichlorophenylamino)-(5-chlorothiophen-2-yl)-acetic acid sodium salt] | – | 72% | – | –
